Data from US12233063B2, “Compositions and methods for treating eye disorders” (THE REGENTS OF THE UNIVERSITY OF MICHIGAN, priority 2017, dated 2025).
Like-named read-outs stand apart in the source and are kept apart here.

Columns and labels:
[1] = Ocular pharmacokinetics after single intravitreal injection, aqueous humor; type: in vivo, Dutch-belted rabbits; settings: male, Dutch-belted, other: intravitreal, rabbit aqueous humor
Description: Pharmacokinetics. Pharmacokinetic studies were performed in Dutch-belted rabbits. As previously described, male rabbits were anesthetized with inhalant anesthesia (sevoflurane) prior to each aqueous humor collection or intravitreal injection. An external heat source was used to prevent hypothermia. […] A Flynn pediatric lid speculum was placed in the eye and betadine was applied to the injection site. The temporal sclera was marked with a caliper 2 mm from the limbus. […] Delivery of the compound into the eye was confirmed via clinical inspection (Smith, A. et al. J Ocul Pharmacol Ther 34, 477-485 (2018)). An aqueous humor sample (100 microliters) was collected from each eye prior to intravitreal injection to serve as a baseline control. A 30-gauge needle on a 1 ml syringe was used to enter the anterior chamber of the eye and aspirate the aqueous humor in a controlled fashion. […] Samples were analyzed by LC-MS/MS (liquid chromatography-mass spectrometry/mass spectrometry). […] Rabbits are the most commonly used animals in intravitreal pharmacokinetic studies with good correlation to the human eye (Del Amo, E. M. & Urtti, A. Exp. Eye Res. 137, 111-124 (2015)). As described above, two different concentrations were injected into the vitreous of rabbits, and the aqueous humor was sampled at various times thereafter. […]

[2] = tested on: caspase 3/7; assay: Caspase 3/7 activity assay in 661W cells; type: cell-based; settings: 8 hours
Description: (§1) Caspase Activity Assay. Luminescent assay kits (Caspase-Glo 8 and 3/7 Assay Systems, Promega, Madison, WI, Cat Nos. G8200 and G8090, respectively) were utilized to measure caspase 8 and caspase 3/7 activity according to the manufacturer's instructions. The 661W cells were seeded in white-walled 96-well plates at 2,500 cells/well for 24 hours prior to treatment. […] Caspase activity was measured at 8 hours status post treatment by incubating the cells with substrate for 1 hour according to the manufacturer's instructions. Luminescence was measured in a plate reader luminometer (BMG Labtech, Inc, Cary, NC).

[3] = tested on: caspase 8; assay: Caspase 8 activity assay in 661W cells; type: cell-based; settings: 8 hours
Description: as §1

[4] = target: T1, human recombinant PKM2 (Homo sapiens, UniProt P14618); assay: Pyruvate kinase activity enzyme assay, recombinant enzyme (LDH-coupled); type: biochemical; settings: read-out: max activation
T1 construct: purchased Sigma SAE0021
Description: Pyruvate Kinase Activity Enzyme Assay. Recombinant Enzyme. A continuous, enzyme-coupled assay, which uses lactate dehydrogenase (LDH) and measures the depletion of NADH via absorbance at 340 nm was utilized to determine the pyruvate kinase activity. […] The decrease in absorbance at 340 nm was monitored using a Spectrostar Omega plate reader (BMG LABTECH Inc., Cary, NC, USA). Initial velocities were calculated with the MARS software. Data were normalized to DMSO (dimethyl sulfoxide)-treated PKM2 activity.

[5] = tested on: H1299 cell xenografts; settings: cited from earlier work
[6] = tested on: caspase 8; assay: Caspase 8 activity in experimental retinal detachment; type: in vivo, Brown-Norway rats; settings: 3 days after retinal detachment, subretinal injection
Description: Experimental Model of Retinal Detachment. Detachments were created in Brown-Norway, adult rats as previously described (Wubben et al., supra; Besirli et al., 2010 supra; Zacks, D. N. et al. Invest. Ophthalmol. Vis. Sci. 44, 1262-1267 (2003); Zacks, D. N., et al. Invest. Ophthalmol. Vis. Sci. 45, 4563-4569 (2004); Besirli, C. G., et al. Invest. Ophthalmol. Vis. Sci. 52, 4193-4199 (2011)). Briefly, rodents were anesthetized with a mix of ketamine (100 mg/mL) and xylazine (20 mg/mL), and pupils were dilated with topical phenylephrine (2.5%) and tropicamide (1%). A 25-gauge microvitreoretinal blade (Walcott Rx Products, Ocean View, N.J.) was used to create a sclerotomy located 1-2 mm posterior to the limbus with care taken to avoid lens damage. […]
1 tablet of protease inhibitor (Complete Mini; Roche Diagnostics, Indianapolis, IN) and 1 tablet of phosphatase inhibitor (PhosSTOP; Roche Diagnostics, Indianapolis, IN) per 10 mL were added to the lysis buffer. The homogenates were centrifuged at 10,000 g for 10 minutes at 4° C., and total protein concentration of the supernatant was determined using a Micro BCA protein assay kit (ThermoScientific, Rockford, IL). Substrate was incubated with 50 μg of protein in a white-walled 96 well-plate at room temperature for 1 hour and luminescence was measured as above. […]

[7] = tested on: genes involved in glucose metabolism; assay: Quantitative PCR of glucose metabolism genes in treated rat retinas; type: in vivo; settings: 2 μL of 7.5 mM intravitreal, 3 days, fold change cut-off of 2, vs untreated and DMSO
Description: Quantitative Real-Time PCR. Intravitreal injections of ML-265 or vehicle (DMSO) were performed in Brown-Norway, adult rats as described above. […] Left eyes were injected with ML-265 or DMSO. The right eye served as the control, with all steps of the procedure performed, except for introduction of the blunt cannula and injection of ML-265 or DMSO. Retinas were harvested 3 days post-injection.
Total RNA was purified from retinal tissues of rats using RNeasy Mini kit (Qiagen, Cat No./ID: 74104) and QIAshredder (Qiagen, Cat No./ID: 79654). cDNA was synthesized using RT^2 First Strand Kit (Cat. No./ID: 330401) according to the manufacturer's instructions. Quantitative PCR was performed in at least triplicate for the different experimental groups using the Rat Glucose Metabolism RT^2 Profiler™ PCR Array (Qiagen, Cat No./ID: PARN-006Z). This PCR array allows simultaneous profiling of 84 genes involved in glucose metabolism and includes housekeeping genes for normalization. Reactions were performed and monitored using a CFX96 real time PCR system (Bio-Rad Laboratories), 1 cycle at 95° C. for 10 min followed by 40 cycles at 95° C. for 15 sec, 60° C. for 1 min. Data analysis was performed using the RT^2 Profiler™ PCR Array Data Analysis Template from Qiagen. Those genes whose relative expression level was low or not detected in all experimental groups were excluded from analysis. […]

[8] = target: T2, pyruvate kinase (PK) (Rattus norvegicus, UniProt P11980); assay: In vivo pyruvate kinase activation in rat retina after intravitreal injection; settings: rats
T2 construct: from tissue; host or cells: retina of Brown-Norway adult rats
Description: Animals. Intravitreal injections of ML-265 or vehicle (DMSO) were performed in Brown-Norway, adult rats. Rodents were anesthetized with a mix of ketamine (100 mg/mL) and xylazine (20 mg/mL), and pupils were dilated with topical phenylephrine (2.5%) and tropicamide (1%). A 25-gauge microvitreoretinal blade (Walcott Rx Products, Ocean View, N.J.) was used to create a sclerotomy located 1-2 mm posterior to the limbus with care taken to avoid lens damage. A blunt, 34-gauge cannula was introduced through the sclerotomy into the vitreous cavity. […] Four hours after intravitreal injection, retinas from experimental rat eyes were dissected from the RPE-choroid, homogenized, and lysed in RIPA Lysis and Extraction Buffer with protease inhibitors. The assay was carried out using 4 microliters of rat retinal lysate in an enzyme buffer mixture (50 mM Tris-HCl, pH 7.4, 100 mM KCl, 5 mM MgCl2, 1 mM ADP, 0.5 mM PEP, and 0.2 mM NADH) and 8 units of LDH similar to what has been previously described (Wubben et al., supra; Raj ala et al., supra). Pyruvate kinase activity was normalized to total protein in each retinal lysate.
The retinas of these animals were then harvested 15 days after injection and assayed for PK activity (FIG. 20).

[9] = tested on: 661W cells; assay: Cell viability of 661W cells (RealTime-Glo MT); type: cell-based; settings: 48 hours; for cell viability above DMSO-treated cells in standard tissue culture conditions / less cell death as compared to vehicle: FasL
Description: Cell viability. Cell viability was measured using a luminescent assay kit not based on ATP (RealTime-Glo MT Cell Viability Assay, Promega, Madison, WI, Cat No. G9711). 661W cells were seeded in 96-well plates (Nunc, Rochester, NY) at 2,500 cells/well 24 hours prior to treatment. […] Cell viability was measured 48 hours after treatment according to the manufacturer's instructions. […] Viability was again assessed at 48 hours after addition of FasL and HA Luminescence was measured in a plate reader luminometer (BMG Labtech, Inc, Cary, NC).

[10] = target: T3, pyruvate kinase (PK) in 661W cells (Mus musculus, UniProt P52480); assay: Pyruvate kinase activity in lysates of 661W cells treated for 2 hours; type: cell-based; settings: for AC50: 2 hours incubation
T3 construct: endogenous in cells; host or cells: 661W photoreceptor cell line
Description: Cell Culture. The 661W photoreceptor cell line was generously provided by Dr. Muayyad al-Ubaidi (Department of Cell Biology, University of Oklahoma Health Sciences Center, Oklahoma City, OK, USA) (al-Ubaidi, M. R. et al. J. Cell Biol. 119, 1681-1687 (1992)). The 661W cell line was maintained in Dulbecco's modified Eagle's medium containing 10% fetal bovine serum, 300 mg/L glutamine, 32 mg/L putrescine, 40 μL/L of β-mercaptoethanol, and 40 μg/L of both hydrocortisone 21-hemisuccinate and progesterone. The media also contained penicillin (90 units/mL) and streptomycin (0.09 mg/mL). Cells were grown at 37° C. in a humidified atmosphere of 5% CO2 and 95% air.
Cell culture. For cell line experiments, media was replaced prior to the start of treatment with DMSO or ML-265. […] Cells were lysed and homogenized in RIPA Lysis and Extraction Buffer (Catalog number: 89900, Life Technologies Corporation, Grand Island, NY) with protease inhibitors (Complete-Mini, Roche Diagnostics, Indianapolis, IN) and clarified by centrifugation at 10,000 rpm for 10 minutes. Five microliters of the supernatant was used to assess pyruvate kinase activity, and the activity was normalized to total protein content as previously described (Walsh et al., supra).

[11] = 500 ng/mL FasL and 250 ng/mL HA
[12] = standard tissue culture conditions
[13] = 15 days after single intravitreal injection of 2 μL of 7.5 mM

T2 sequence (P11980 1-531 isoform P11980-2): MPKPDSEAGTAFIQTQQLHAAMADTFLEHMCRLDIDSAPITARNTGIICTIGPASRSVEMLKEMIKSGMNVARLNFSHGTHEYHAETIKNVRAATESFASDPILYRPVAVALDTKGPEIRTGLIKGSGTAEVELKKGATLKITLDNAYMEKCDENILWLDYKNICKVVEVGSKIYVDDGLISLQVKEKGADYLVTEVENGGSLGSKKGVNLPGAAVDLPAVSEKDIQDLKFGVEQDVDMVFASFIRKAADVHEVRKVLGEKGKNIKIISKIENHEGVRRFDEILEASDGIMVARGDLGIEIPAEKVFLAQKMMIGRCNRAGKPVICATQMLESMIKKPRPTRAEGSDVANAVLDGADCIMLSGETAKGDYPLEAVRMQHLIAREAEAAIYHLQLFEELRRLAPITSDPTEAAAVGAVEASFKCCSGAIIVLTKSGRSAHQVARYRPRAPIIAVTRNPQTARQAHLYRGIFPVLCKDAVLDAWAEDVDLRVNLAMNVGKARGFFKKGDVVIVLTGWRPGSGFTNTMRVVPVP
T3 sequence (P52480 whole entry): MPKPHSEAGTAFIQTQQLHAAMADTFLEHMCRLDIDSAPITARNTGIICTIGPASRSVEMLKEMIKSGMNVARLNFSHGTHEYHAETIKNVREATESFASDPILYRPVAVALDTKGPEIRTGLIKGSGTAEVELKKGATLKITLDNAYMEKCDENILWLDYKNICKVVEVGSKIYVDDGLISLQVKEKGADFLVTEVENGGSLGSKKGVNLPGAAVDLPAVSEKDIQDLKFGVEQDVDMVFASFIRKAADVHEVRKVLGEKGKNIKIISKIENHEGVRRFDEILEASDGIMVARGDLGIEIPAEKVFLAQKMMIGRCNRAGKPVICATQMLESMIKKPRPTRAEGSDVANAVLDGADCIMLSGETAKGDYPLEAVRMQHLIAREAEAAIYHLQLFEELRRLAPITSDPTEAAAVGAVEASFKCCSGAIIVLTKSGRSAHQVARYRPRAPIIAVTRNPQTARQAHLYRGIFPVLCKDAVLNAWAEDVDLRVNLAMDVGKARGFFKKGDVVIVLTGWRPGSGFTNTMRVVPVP
T1 sequence (P14618 whole entry): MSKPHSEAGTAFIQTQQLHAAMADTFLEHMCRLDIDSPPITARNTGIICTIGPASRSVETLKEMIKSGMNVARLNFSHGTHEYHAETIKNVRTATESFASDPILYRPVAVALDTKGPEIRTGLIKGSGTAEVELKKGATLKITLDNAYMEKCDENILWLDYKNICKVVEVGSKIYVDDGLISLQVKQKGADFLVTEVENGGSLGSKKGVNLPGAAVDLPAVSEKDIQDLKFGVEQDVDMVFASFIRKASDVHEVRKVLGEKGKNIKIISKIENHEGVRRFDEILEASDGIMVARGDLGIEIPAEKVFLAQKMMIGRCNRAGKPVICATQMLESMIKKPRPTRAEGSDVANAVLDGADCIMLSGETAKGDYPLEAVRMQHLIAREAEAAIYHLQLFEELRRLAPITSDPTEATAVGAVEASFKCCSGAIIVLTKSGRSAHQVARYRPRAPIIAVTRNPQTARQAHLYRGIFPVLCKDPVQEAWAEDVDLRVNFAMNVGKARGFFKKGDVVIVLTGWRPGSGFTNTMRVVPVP

With Cn1c2cc([S+](C)[O-])sc2c2cnn(Cc3cccc(N)c3)c(=O)c21 (stereo not drawn) [ML-265] the half-life ([1]; 23 mM, 50 microliters per eye, highest concentration (1 mM final vitreous), read-out: t1/2 terminal phase (converted)) was 7.38 days, the half-life ([1]; between 6 and 48 hours, 100 μM and 1 mM final vitreous concentration, read-out: t1/2 initial phase (converted)) was 0.325 days and the “caspase 3/7 activation” value [2, 11] was “significantly decreased”. The “caspase 3/7 activity” value [2, 12] was “no significant effect”, the “caspase 8 activation” value [3, 11] was “significantly decreased” and the “caspase 8 activity” value [3, 12] was “no significant effect”. The Emax [4] was over 250%, the “tumor size and occurrence” value ([5]; mice bearing H1299 cell xenografts) was “reduce tumor size and occurrence” and the toxicity ([5]; over 7 weeks of continuous drug exposure) was “No toxicity was observed”. For the same molecule, the “caspase 8 activity vs vehicle” value [6] was “statistically significantly less”, the “normalized gene expression patterns, glucose metabolism genes” value [7] was “very similar” and the Emax ([8]; rat, intravitreal injection, saturating concentrations, read-out: maximum activation of PK) was at most 170%. For the same molecule, the “average in vivo PK activation” value [8, 13] was 43%, the “median PK activation above DMSO treated retinas” value [8, 13] was 38% and the AC50 ([8]; intravitreal injection, retinas 4 hours after injection) was 59 nM. For the same molecule, the “maximum activation of PK” value ([8]; intravitreal injection, saturating concentrations) was 170%, the “cell viability above DMSO-treated cells in standard tissue culture conditions” value ([9]; 200 nM ML-265) was 2% and the “less cell death as compared to vehicle” value ([9]; 200 nM ML-265) was 109%. For the same molecule, the “cell viability above DMSO-treated cells in standard tissue culture conditions” value ([9]; 2 μM ML-265) was 6%, the “less cell death as compared to vehicle” value ([9]; 2 μM ML-265) was 123% and the cell viability [9, 12] was “no significant effect”. For the same molecule, the “increase in PK activity” value [10] was 236%, the AC50 [10] was “comparable to that with recombinant protein” and the AC50 ([10]; read-out: AC50) was 22 nM.
